Experimental findings from the SangsterLogP compilation are described below.

This series is described as follows: method code SF, from DOI: 10.1002/em.2850190107, PMID: 1732103.

In the case of `Nc1cccc2cc3ccccc3cc12`, the logP stood at 3.69. `Cc1ccc(C)c(N)c1` gave a log partition coefficient (logP) of 1.83. In turn, `Nc1cc(Cl)ccc1O` gave a logP of 1.81.

`Nc1ccc2c3c(cccc13)-c1ccccc1-2` yielded a logP of 4.2. Compound `Nc1ccc2c(c1)Cc1ccccc1-2` registered a log partition coefficient (logP) of 3.14.

In the case of `Nc1cccc(C(F)(F)F)c1`, the logP was 2.29. With `Nc1ccc(Oc2ccc(N)cc2)cc1` the figure was 1.36.

In the case of `COc1ccc(N)c(C)c1`, the logP was 1.23. Consider `Nc1ccc2c(c1)Cc1cc(Br)ccc1-2`, for which the logP amounted to 3.92. Next, `Cc1ccc(N)cc1N`: 0.14. The compound `Nc1cccc2c1Cc1ccccc1-2` showed a logP of 3.18. Compound `Nc1ccccc1-c1ccccc1N` displayed a logP of 1.34. `COc1cc(-c2ccc(N)c(OC)c2)ccc1N`: the log partition coefficient (logP) was 1.81.

In turn, `Nc1cc2ccccc2c2ccccc12` yielded a logP of 3.56.

Compound `Cc1ccc(N)c(N)c1` came in with a logP of 0.66.

As usually defined, the logP is a log measure of how a compound divides between an organic and an aqueous phase. Higher therefore signals higher lipophilicity.
